# Earlier results in US10871492B2, “Methods for labeling urine in a subject with fluorophores” (UPTRU INC., priority 2015, dated 2020).
# Settings: health care applications, especially fundus angiography
smiles,measurement,value
"O=C([O-])c1ccccc1-c1c2ccc(=O)cc-2oc2cc([O-])ccc12.[Na+].[Na+] [Fluorescein sodium salt, fluorescein sodium salt]",dose generally considered safe,≤ 25 mg/kg of body weight
